{
  "source": "BigSolDB 2.1",
  "data": [
    {"smiles": "CC(=O)Nc1ccc(OC(=O)c2ccccc2OC(C)=O)cc1", "values": [
      {"measurement": "solubility (mole fraction)", "setting": "in DMF, 278.15 K", "result": 0.0175},
      {"measurement": "solubility (mole fraction)", "setting": "in DMF, 283.15 K", "result": 0.0187},
      {"measurement": "solubility (mole fraction)", "setting": "in DMF, 288.15 K", "result": 0.0201},
      {"measurement": "solubility (mole fraction)", "setting": "in DMF, 293.15 K", "result": 0.0214},
      {"measurement": "solubility (mole fraction)", "setting": "in DMF, 298.15 K", "result": 0.0229},
      {"measurement": "solubility (mole fraction)", "setting": "in DMF, 303.15 K", "result": 0.0244},
      {"measurement": "solubility (mole fraction)", "setting": "in DMF, 308.15 K", "result": 0.0258},
      {"measurement": "solubility (mole fraction)", "setting": "in DMF, 313.15 K", "result": 0.0274},
      {"measurement": "solubility (mole fraction)", "setting": "in DMF, 318.15 K", "result": 0.029},
      {"measurement": "solubility (mole fraction)", "setting": "in NMP, 278.15 K", "result": 0.0222},
      {"measurement": "solubility (mole fraction)", "setting": "in NMP, 283.15 K", "result": 0.0255},
      {"measurement": "solubility (mole fraction)", "setting": "in NMP, 288.15 K", "result": 0.0289},
      {"measurement": "solubility (mole fraction)", "setting": "in NMP, 293.15 K", "result": 0.0326},
      {"measurement": "solubility (mole fraction)", "setting": "in NMP, 298.15 K", "result": 0.0368},
      {"measurement": "solubility (mole fraction)", "setting": "in NMP, 303.15 K", "result": 0.041},
      {"measurement": "solubility (mole fraction)", "setting": "in NMP, 308.15 K", "result": 0.0461},
      {"measurement": "solubility (mole fraction)", "setting": "in NMP, 313.15 K", "result": 0.0515},
      {"measurement": "solubility (mole fraction)", "setting": "in NMP, 318.15 K", "result": 0.0571},
      {"measurement": "solubility (mole fraction)", "setting": "in ethanol, 278.15 K", "result": 0.000261},
      {"measurement": "solubility (mole fraction)", "setting": "in ethanol, 283.15 K", "result": 0.00035},
      {"measurement": "solubility (mole fraction)", "setting": "in ethanol, 288.15 K", "result": 0.000454},
      {"measurement": "solubility (mole fraction)", "setting": "in ethanol, 293.15 K", "result": 0.000588},
      {"measurement": "solubility (mole fraction)", "setting": "in ethanol, 298.15 K", "result": 0.000755},
      {"measurement": "solubility (mole fraction)", "setting": "in ethanol, 303.15 K", "result": 0.000947},
      {"measurement": "solubility (mole fraction)", "setting": "in ethanol, 308.15 K", "result": 0.0012},
      {"measurement": "solubility (mole fraction)", "setting": "in ethanol, 313.15 K", "result": 0.00151},
      {"measurement": "solubility (mole fraction)", "setting": "in ethanol, 318.15 K", "result": 0.00191},
      {"measurement": "solubility (mole fraction)", "setting": "in isopropanol, 278.15 K", "result": 0.000141},
      {"measurement": "solubility (mole fraction)", "setting": "in isopropanol, 283.15 K", "result": 0.000191},
      {"measurement": "solubility (mole fraction)", "setting": "in isopropanol, 288.15 K", "result": 0.000257},
      {"measurement": "solubility (mole fraction)", "setting": "in isopropanol, 293.15 K", "result": 0.000346},
      {"measurement": "solubility (mole fraction)", "setting": "in isopropanol, 298.15 K", "result": 0.000456},
      {"measurement": "solubility (mole fraction)", "setting": "in isopropanol, 303.15 K", "result": 0.000604},
      {"measurement": "solubility (mole fraction)", "setting": "in isopropanol, 308.15 K", "result": 0.000781},
      {"measurement": "solubility (mole fraction)", "setting": "in isopropanol, 313.15 K", "result": 0.00103},
      {"measurement": "solubility (mole fraction)", "setting": "in isopropanol, 318.15 K", "result": 0.00131},
      {"measurement": "solubility (mole fraction)", "setting": "in water, 278.15 K", "result": "5.59e-07"},
      {"measurement": "solubility (mole fraction)", "setting": "in water, 283.15 K", "result": "8.56e-07"},
      {"measurement": "solubility (mole fraction)", "setting": "in water, 288.15 K", "result": "1.19e-06"},
      {"measurement": "solubility (mole fraction)", "setting": "in water, 293.15 K", "result": "1.74e-06"},
      {"measurement": "solubility (mole fraction)", "setting": "in water, 298.15 K", "result": "2.45e-06"},
      {"measurement": "solubility (mole fraction)", "setting": "in water, 303.15 K", "result": "3.49e-06"},
      {"measurement": "solubility (mole fraction)", "setting": "in water, 308.15 K", "result": "4.82e-06"},
      {"measurement": "solubility (mole fraction)", "setting": "in water, 313.15 K", "result": "6.74e-06"},
      {"measurement": "solubility (mole fraction)", "setting": "in water, 318.15 K", "result": "8.99e-06"}
    ]}
  ]
}
